Measured values from patent US8546421B1, “Oncogenic-RAS-signal dependent lethal compounds” (The Trustees of Columbia University in the City of New York, priority 2007, dated 2013).
In brackets after ≈: the same amount, converted by molar mass.

Assays:
[1] = test system: BJ-TERT/LT/ST/RAS^V12 cells; experiment: Counter screening with biologically active compounds; type: cell-based, human; details: for biologically active compounds that suppress compound-induced cell death: 36 bioactive compounds of Table 1, 24 hours, alamar blue
Description: Biologically active compounds listed in Table 1 were dissolved in BJ medium at 10× final concentration and aliquoted into eppendorf tubes. 100 μL of each 10× solution was transferred to column 1 to column 12 or column 13 to column 24 of a single row in a 384-well daughter plate. This plate was designated as ‘10× biologically active plate’. In order to prepare lethal compound solution, Erastin and compounds 3, 6, 27, and 36 were dissolved in BJ medium at a concentration of 100 μg/mL, 400 μg/mL, 400 μg/mL, 100 μg/mL, and 200 μg/mL, respectively. Empty daughter plates were filled with 50 μL BJ media except for columns 5 and 13 where 100 μL of each lethal solution was transferred. After lethal solution transfer, 2-fold dilution series across columns 5 to 12 and columns 13 to 20 was made by transferring 50 μL compound solution to the next column successively (8-point dilution series), with mixing. These five plates were each designated ‘10× lethal plate’. Five assay plates were prepared by seeding 4,000 BJ-TERT/LT/ST/RAS^V12 cells per well in 32 μL of growth media in black, clear bottom 384-well plates. Cells in assay plates were first treated with biologically active compounds by transferring 4 μL from the 10× inhibitor plate. Cells were then treated with each lethal compound in a 2-fold dilution series by transferring 4 μL solution from each 10× lethal plate. […] Percent growth inhibition (% GI) was calculated by the following formula using fluorescence intensity values: % GI=100*(1−(X−N)/([…])) wherein X is the fluorescent intensity value measured at 590 nm for cells treated with biologically active compound and lethal compound; N is the fluorescent intensity value measured at 590 nm for a control containing no cells (i.e. biologically active compound in growth media); and P is the fluorescent intensity value measured at 590 nm for a control containing no lethal compound (i.e., cells treated with biologically active compound). Counter Screening with Iron Chelators

[2] = test system: A549, Calu-1, PaCa, and HCT116 cells; experiment: Alamar blue assay in KRAS-mutation-harboring cancer cells; type: cell-based, human
Description: A549, Calu-1, HCT116 and MIA PaCa-2 cell lines have an oncogenic mutation in the KRAS gene. Compounds which tested positive in the oncogenic HRAS primary screen were also tested for their selectivity against oncogenic KRAS which is more commonly mutated in human cancers.

HL-60(TB) = experiment: cells; details: Homo sapiens; for GI50: HL-60; for CC50: HL-60, read-out: LC 50%
K-562 = experiment: NCI60 anti-cancer screening; details: for GI50 / CC50: Homo sapiens; for GI50: K562; for CC50: K562, read-out: LC 50%
HOP-92 = experiment: NCI60 anti-cancer screening; details: for GI 100% / GI50: HOP-92; for GI 100%: Non-small cell lung carcinoma; for GI50 / CC50: Homo sapiens; for CC50: HOP-92, read-out: LC 50%
SNB-75 = experiment: NCI60 anti-cancer screening; details: for GI50 / CC50: Homo sapiens; for GI50 / GI 100%: SNB-75; for CC50: SNB-75, read-out: LC 50%; for GI 100%: CNS Cancer
A498 = experiment: NCI60 anti-cancer screening; details: for GI 100% / GI50: A498; for GI 100%: Renal Cancer; for GI50 / CC50: Homo sapiens; for CC50: A498, read-out: LC 50%
NCI/ADR-RES = experiment: NCI60 anti-cancer screening; details: for GI 100%: Breast Cancer; for GI50 / CC50: Homo sapiens; for CC50: read-out: LC 50%
BT-549 = experiment: NCI60 anti-cancer screening; details: for GI 100% / GI50: BT-549; for GI 100%: Breast Cancer; for GI50 / CC50: Homo sapiens; for CC50: BT-549, read-out: LC 50%
Calu-1 = experiment: Alamar Blue assay, additional cell lines; type: cell-based, human; details: for Maximum Inhibition % / GI50: Calu-1, Non-small cell lung carcinoma, Alamar Blue
Description: (§1) The results of this additional testing are summarized in Tables 7-10 (no additional cell lines were identified as sensitive for Compound 3). […] The tumor type, cell line, maximum percentage inhibition, the concentration of compound required to inhibit cell growth by 50%, and RAS mutation (if any) are also summarized.

PaCa-2 = experiment: Alamar Blue assay, additional cell lines; type: cell-based, human; details: Pancreatic Cancer; for GI50: Homo sapiens
Description: as §1

OVCAR-3 [3] = details: Ovarian Cancer
OVCAR-3 [4] = experiment: cells; details: Homo sapiens; for GI50: OVCAR-3; for CC50: OVCAR-3, read-out: LC 50%
RPMI-8226 = experiment: NCI60 anti-cancer screening; details: for GI50 / CC50: Homo sapiens; for GI50 / GI 100%: RPMI-8226; for CC50: RPMI-8226, read-out: LC 50%; for GI 100%: Leukemia
SF-539 = experiment: NCI60 anti-cancer screening; details: for GI50 / CC50: Homo sapiens; for GI50 / GI 100%: SF-539; for CC50: SF-539, read-out: LC 50%; for GI 100%: CNS Cancer
M14 = experiment: NCI60 anti-cancer screening; details: for GI50 / CC50: Homo sapiens; for GI50 / GI 100%: M14; for CC50: M14, read-out: LC 50%; for GI 100%: Melanoma
SK-MEL-2 = experiment: NCI60 anti-cancer screening; details: for GI50 / CC50: Homo sapiens; for GI50 / GI 100%: SK-MEL-2; for CC50: SK-MEL-2, read-out: LC 50%; for GI 100%: Melanoma
UACC-257 = experiment: NCI60 anti-cancer screening; details: for GI50 / CC50: Homo sapiens; for GI50 / GI 100%: UACC-257; for CC50: UACC-257, read-out: LC 50%; for GI 100%: Melanoma
ACHN = experiment: NCI60 anti-cancer screening; details: for GI50 / CC50: Homo sapiens; for CC50: read-out: LC 50%; for GI 100%: Renal Cancer
TK-10 = experiment: NCI60 anti-cancer screening; details: for GI50 / CC50: Homo sapiens; for GI50 / GI 100%: TK-10; for CC50: TK-10, read-out: LC 50%; for GI 100%: Renal Cancer
PC-3 = experiment: NCI60 anti-cancer screening; details: for GI50 / CC50: Homo sapiens; for GI50 / GI 100%: PC-3; for CC50: PC-3, read-out: LC 50%; for GI 100%: Prostate Cancer

COCCOC(=O)C1=C(C)NC2=C(C(=O)CC(c3ccc(Cl)cc3)C2)C1c1ccccc1F (centres unmarked) [Compound 3]
biologically active compounds that suppress compound-induced cell death [1]: anti-oxidants (GSH, BHT, Vit. E), iron chelators (L-mim, DFOM), and a protein synthesis inhibitor (cycloheximide)
effect of MEK1/2 inhibitor (U0126) on compound-induced cell death ([1]; U0126 10 uM): completely blocked
activity in KRAS-mutation-harboring cancer cells (in words) [2]: less activity
GI50 (HL-60(TB)): 9.8 µM
CC50 (HL-60(TB)): > 10 µM
GI50 (K-562): 9.16 µM
CC50 (K-562): > 10 µM
GI 100% (K-562; K-562, Leukemia): >10 µM
GI 100% (HOP-92): >10 µM
GI50 (HOP-92): 6.18 µM
CC50 (HOP-92): > 10 µM
GI50 (SNB-75): 9.61 µM
CC50 (SNB-75): > 10 µM
GI 100% (SNB-75): >10 µM
GI 100% (A498): >10 µM
GI50 (A498): 3.39 µM
CC50 (A498): > 10 µM
GI 100% (NCI/ADR-RES): >10 µM
GI50 (NCI/ADR-RES): 8.93 µM
CC50 (NCI/ADR-RES): > 10 µM
GI 100% (BT-549): >10 µM
GI50 (BT-549): 4.28 µM
CC50 (BT-549): > 10 µM

COC(=O)c1ccc(C2c3[nH]c4ccccc4c3CC(C(=O)OC)N2C(=O)CCl)cc1 (centres unmarked) [Compound 27]
Maximum Inhibition % (Calu-1): 100%
IC90 (in words) (Calu-1; Calu-1 cells, alamar blue): single-digit nanomolar range
GI50 (Calu-1; Homo sapiens): 0.001 µM
IC50 (Calu-1; Homo sapiens, Calu-1 cells, treated for 24 hour, alamar blue): 0.02 µg/mL (≈ 0.0454 µM)
GI50 (PaCa-2): 0.125 µM
Maximum Inhibition % (PaCa-2): 100%
effect of pan-caspase inhibitors (z-VAD-fmk, Boc-D-fmk) on compound-induced cell death [1]: not blocked
biologically active compounds that suppress compound-induced cell death [1]: GSH, L-Mim, TLCK, DFOM, SU6656, Ro31-8220, and U0126 were effective
activity in KRAS-mutation-harboring cancer cells (in words) [2]: active in all oncogenic-KRAS-harboring cancer cell lines tested
GI50 (HL-60(TB)): 0.28 µM
CC50 (HL-60(TB)): 1.2 µM
GI 100% (OVCAR-3 [3]): 1.57 µM
GI50 (OVCAR-3 [4]): 0.353 µM
CC50 (OVCAR-3 [4]): 6.59 µM
GI50 (RPMI-8226): 0.0431 µM
CC50 (RPMI-8226): 6.99 µM
GI 100% (RPMI-8226): 2.22 µM
GI 100% (HOP-92): 1.07 µM
GI50 (HOP-92): 0.0991 µM
CC50 (HOP-92): 5.85 µM
GI50 (SF-539): 0.118 µM
CC50 (SF-539): 0.492 µM
GI 100% (SF-539): 0.241 µM
GI50 (SNB-75): 0.745 µM
CC50 (SNB-75): > 10 µM
GI 100% (SNB-75): 3.06 µM
GI50 (M14): 1.07 µM
CC50 (M14): 4.75 µM
GI 100% (M14): 2.25 µM
GI50 (SK-MEL-2): 1.74 µM
CC50 (SK-MEL-2): 9.82 µM
GI 100% (SK-MEL-2): 4.13 µM
GI50 (UACC-257): 1.37 µM
CC50 (UACC-257): > 10 µM
GI 100% (UACC-257): 7.46 µM
GI 100% (A498): 4.52 µM
GI50 (A498): 1.83 µM
CC50 (A498): > 10 µM
GI50 (ACHN): 0.187 µM
CC50 (ACHN): 3.25 µM
GI 100% (ACHN): 1.05 µM
GI50 (TK-10): 1.9 µM
CC50 (TK-10): 8.25 µM
GI 100% (TK-10): 3.96 µM
GI50 (PC-3): 0.231 µM
CC50 (PC-3): 3.29 µM
GI 100% (PC-3): 1.08 µM
GI 100% (NCI/ADR-RES): >10 µM
GI50 (NCI/ADR-RES): 2.56 µM
CC50 (NCI/ADR-RES): > 10 µM
GI 100% (BT-549): 0.316 µM
GI50 (BT-549): 0.131 µM
CC50 (BT-549): 0.765 µM

CCc1c(O)c2c(c(O)c1O[C@H]1O[C@@H](COC(C)=O)[C@H](OC(C)=O)[C@@H](CC(C)=O)[C@@H]1OC(C)=O)C(=O)C(O[C@@H]1O[C@H](COC(C)=O)[C@@H](OC(C)=O)[C@H](OC(C)=O)[C@H]1OC(C)=O)=C(O[C@@H]1O[C@H](COC(C)=O)[C@@H](OC(C)=O)[C@H](OC(C)=O)[C@H]1OC(C)=O)C2=O [Compound 6]
Maximum Inhibition % (Calu-1): 100%
GI50 (Calu-1; Homo sapiens): 2.5 µM
GI50 (PaCa-2): 0.6 µM
Maximum Inhibition % (PaCa-2): 100%
biologically active compounds that suppress compound-induced cell death [1]: only reduced glutathione (GSH) was able to inhibit
activity in KRAS-mutation-harboring cancer cells (in words) [2]: reasonable potency
GI50 (HL-60(TB)): 0.516 µM
CC50 (HL-60(TB)): 8.25 µM
GI 100% (OVCAR-3 [3]): >10 µM
GI50 (OVCAR-3 [4]): 3.52 µM
CC50 (OVCAR-3 [4]): > 10 µM
GI50 (K-562): 0.238 µM
CC50 (K-562): > 10 µM
GI50 (RPMI-8226): 2.37 µM
CC50 (RPMI-8226): > 10 µM
GI 100% (RPMI-8226): 6.77 µM
GI 100% (HOP-92): 4.31 µM
GI50 (HOP-92): 1.48 µM
CC50 (HOP-92): > 10 µM
GI50 (SF-539): 2.32 µM
CC50 (SF-539): 9.59 µM
GI 100% (SF-539): 4.71 µM
GI50 (M14): 2.07 µM
CC50 (M14): 9.28 µM
GI 100% (M14): 4.38 µM
GI50 (SK-MEL-2): 2.32 µM
CC50 (SK-MEL-2): > 10 µM
GI 100% (SK-MEL-2): 6.87 µM
GI50 (UACC-257): 2.78 µM
CC50 (UACC-257): > 10 µM
GI 100% (UACC-257): >10 µM
GI50 (ACHN): 8.76 µM
CC50 (ACHN): > 10 µM
GI 100% (ACHN): >10 µM
GI50 (TK-10): 2.76 µM
CC50 (TK-10): > 10 µM
GI 100% (TK-10): >10 µM
GI50 (PC-3): 5.07 µM
CC50 (PC-3): > 10 µM
GI 100% (PC-3): >10 µM
GI 100% (BT-549): 3.27 µM
GI50 (BT-549): 1.49 µM
CC50 (BT-549): 7.21 µM
